“Also recorded” adds a separate entry of the source. Where a SMILES comes first, the peptide text is derived from it. [ ]: non-standard residue; d: D form. The star is where a group is joined. ξ: configuration not given here. Myristoyl = CCCCCCCCCCCCCC(=O)*; dThr(3ξ) = CC(O)[C@@H](N)C(=O)O; Lauroyl = CCCCCCCCCCCC(=O)*; ξIle = CC[C@H](C)C(N)C(=O)O

The values that follow come from patent US20220153782A1, “COMPOUNDS, COMPOSITIONS AND METHODS FOR TREATING A NEUROLOGICAL CONDITION” (MEMORYPLUS LTD., priority 2019, published 2022).

A short description of series [1]: Brain stability (brain homogenate). The note with it: for half-life: mouse, brain homogenate; for brain stability (comparative): longer half-lives. The format is in vitro ADME, mouse. An excerpt:
(§1) N, 3 independent experiments.

Another series is described as follows: Plasma stability (human). The format is in vitro ADME. Particulars: for k / half-life: human plasma, one phase decay; for half-life: human, plasma.
Excerpt: as §1
(§2) Plasma stability. […] Based on the higher lipophilicity of myristoylated peptides, dodecanoyl peptides are expected to be less protein bound and a higher percentage of the peptide will be available for permeation across biological barriers such as the BBB (only free fraction is available for transport). Thus, Dodecanoyl-[…] is a likely candidate for further development.

Series [2] can be described thus: Stability in simulated intestinal fluid. The format is in vitro ADME. The note with it: one phase decay.
Excerpt: as §1
Simulated intestinal fluids. The first hurdle that a peptide faces upon oral delivery is the high salt and acidic environment of the stomach that can denature the therapeutic peptide as well as the action of pepsin. Enteric coating can overcome this first hurdle easily with currently available industrial processes. Thus, we assessed the stability of the lipidized peptides in simulated intestinal fluids from non-fasted animals i.e. soluble fraction of digestive enzymes present in the upper gastrointestinal (and the major absorptive site for peptides). This soluble fraction contains pancreatic proteases such as trypsin and chymotrypsin, carboxypeptidases and aminopeptidases able to hydrolyse peptides down to di- or tripeptides. […] However, permeability across the BBB needs to be taken into consideration.

Series [3] in a line: Physicochemical properties (water solubility).
The nature of the next series: Plasma stability (mouse). The format is in vitro ADME. Particulars: for half-life: mouse, plasma; for half-life / k: one phase decay.
Excerpt: as §1, §2

The nature of series [4]: Liver stability (liver homogenate). The format is in vitro ADME, mouse. Particulars: for half-life: mouse, liver homogenate.
Excerpt: as §1
Liver stability (mouse). Clearance of peptide therapeutics is highly dependent on the high metabolism occurring by liver enzymes able to degrade within minutes the total dose of peptide reaching the bloodstream after intravenous, other parenteral and non-invasive (oral and nasal routes). Peptides with good plasma and liver stability are more likely to remain in circulation and thus elicit higher levels if peptide is brain permeable across the BBB via invasive and non-invasive routes.

A further series can be described thus: in vitro. Particulars: human; for Papp at 200 μM: BBB permeability; for Papp: Papp0-4 h experiment 2. As for the experimental part: (§3) The in vitro permeability across a human 2D blood-brain Transwell model (hCMEC/D3 and human astrocytes SC-1800) was tested and enabled the calculation of the apparent permeability coefficient (Papp) for all peptides.
In the next series the test system is APP/PS1 mice. Nature of the series: Contextual fear conditioning, APP/PS1 mice. The format is in vivo, mouse. Here is the method:
Use of peptides in vivo with osmotic pumps. APP/PS1 (a mouse model of Alzheimer's disease) and WT mice were anesthetized with isofluorane, and i.c.v. delivery cannulas (brain alzet kit III) were implanted with a stereotaxic frame at the following coordinates according to the bregma: AP, −0.5 mm; ML, 1 mm; and DV, −2.2 mm. Osmotic minipumps (Alzet; model #1004) were filled with the peptides (Dodecanoyl-[…] (conjugate of peptide SEQ ID 2) or Dodecanoyl-[…] (conjugate of peptide SEQ ID 1), 10 μM peptide in 2 mM in cyclodextrin) or with vehicle (cyclodextrin), and equilibrated in 0.9% NaCl at 37° C. for 48 hr. They were attached to the i.c.v. cannula tubing and subcutaneously implanted at the back. After 21 days, behavioral testing was started. Animal manipulation and data analysis were carried out blind with respect to genotype and treatment.
Fear conditioning. In this test, mice form an association between a certain context (an experimental cage/tone) and an aversive event (a foot shock) that takes place in that context. […] Training and testing took place in a rodent observation cage (30×37×25 cm) that was placed in a sound attenuating chamber. In the training (conditioning), the mouse was exposed to the conditioning context (180 sec) followed by a tone (CS, 20 sec, 2 kHz, 85 dB). After termination of the tone, a foot shock (US, 0.75 mA, 2 sec) was delivered through a stainless-steel grid floor. Mice received three foot shocks with an intertrial interval of 60 s. The mouse was removed from the fear conditioning box 30 sec after shock termination and returned to their home cages. Testing: In the contextual fear conditioning version, mice were placed back into the original training context for 8 min, during which no foot shock was delivered. […] The animals' behavior was scored by an observer blind to the treatment conditions. Using a time-sampling procedure every 2 s, each mouse was scored blindly as either freezing or active at the instant the sample was taken. […]

The subject of series [5] is in vitro 2D human BBB model (hCMEC/D3 and human astrocytes SC-1800). Kind of series: in vitro. Here is the method:
as §3

Series [6] shares this test system. The note with it: brain permeable peptide, literature; cited from earlier work.
Series [7] can be described thus: Self-assembly (Thioflavin T, critical aggregate concentration) and TEM. The format is physicochemical. Particulars: aqueous media, ThT. The source says:
Peptides were able to aggregate in aqueous media and interact with Thioflavin T (ThT). ThT can be immobilized in fibrils/aggregates resulting in an increase in fluorescence. Dodecanoyl-[…] and Myristoyl-[…] result in lower critical aggregate concentrations (CAC) that is ˜5-fold lower from their equivalent lipidized peptides with a threonine. […] CAC is ˜20-fold smaller for myristoylated peptides compared to dodecanoyl peptides. […] This conserved structure can explain the increased stability and likely the success in solubilizing/stabilizing the peptide aggregates in hydroxyl-b-propyl cyclodextrin.

Setting [8] is: brain, one phase decay, read-out: t1/2 (h).
The mark [9] stands for this setting: brain, one phase decay, read-out: t1/2 (min).
Setting [10] is: liver, one phase decay, read-out: t1/2 (h).
Where [11] appears, read: liver, one phase decay, read-out: t1/2 (min).

Protocol for hCMEC/D3 cells: Cell metabolic activity was calculated in Human cerebral microvascular endothelial cells (hCMEC/D3) after exposure to the peptides at various concentrations for 4 or 24 hours (n=3, FIG. 7).
At the specified time points, the MTT solution (20 μL at 5 mg mL^−1 solution in PBS) were added to each well and cells were incubated for 4 hours at 37° C. Subsequently, DMSO (100 μL) was added to dissolve the formazan crystals and absorbance was measured at 570 and 690 nm using Multiskan Go microplate spectrophotometer and data were analysed using the SkanIt software (Thermo Scientific, Paisley, UK). Cell metabolic activity was calculated by subtracting the values at 690 nm from 570 nm to remove background, and dividing the values by the control to express as a percentage (%) of the control (0.5% DMSO):

With `CCCCCCCCCCCCCC(=O)N[C@@H](CCC(N)=O)C(=O)N[C@@H](Cc1c[nH]cn1)C(=O)N[C@H](C(=O)N[C@@H](CCC(N)=O)C(=O)N[C@H](C(=O)N[C@H](C(=O)N[C@@H](CCCCN)C(=O)N[C@H](C(=O)O)C(C)C)[C@@H](C)O)[C@@H](C)CC)[C@@H](C)O` (Myristoyl-QHTQITKV-OH; C-terminus assumed), the k is 4.204 h⁻¹ in [1] (brain, one phase decay); 1.604 h⁻¹ in “Plasma stability (human)”; 0.2490 h⁻¹ in series [2]; 6.172 h⁻¹ in the series “Plasma stability (mouse)”; 0.03747 h⁻¹ in [4] (liver, one phase decay). For the same compound, the half-life worked out at 0.165 h in [1] (setting [8]); 0.165 h in [1] (setting [9]); 0.432 h in the series “Plasma stability (human)” (read-out: t1/2 (h)); 0.432 h in the series “Plasma stability (human)” (read-out: t1/2 (min)); 0.112 h in the series “Plasma stability (mouse)” (read-out: t1/2 (h)); 0.112 h in the series “Plasma stability (mouse)” (read-out: t1/2 (min)). Also, the half-life is 18.5 h in series [4] (setting [10]); 18.5 h in series [4] (setting [11]); 0.227 h in [4] (liver, two phase decay, fast, read-out: t1/2 (h) (fast) (converted)); 0.227 h in [4] (liver, two phase decay, fast, read-out: t1/2 (min) (fast)); 1510 h in [4] (liver, two phase decay, slow, read-out: t1/2 (h) (slow) (converted)); 1510 h in series [4] (liver, two phase decay, slow, read-out: t1/2 (min) (slow)). Besides, the “physicochemical properties for successful development” value in series [3] is on record as “poor”. For the same compound, in [4] (liver, two phase decay, fast), the “k (fast)” value is listed as 3.051 (fast), h^−1. For the same compound, the “k (slow)” value in [4] (liver, two phase decay, slow) is 0.00046 h⁻¹. For the same compound, the Papp at 200 μM in the series “in vitro” lay in the range of 2.63 to 5.57 ×10⁻⁶ cm/s. This compound returned a Papp in the series “in vitro” of 3.77 ± 0.386 ×10⁻⁶ cm/s. Also, the Cell viability entry in the series on hCMEC/D3 cells was “+++++”.
On to `CCCCCCCCCCCC(=O)N[C@@H](CCC(N)=O)C(=O)N[C@H](Cc1c[nH]cn1)C(=O)N[C@@H](CO)C(=O)N[C@H](CCC(N)=O)C(=O)NC(C(=O)N[C@@H](C(=O)N[C@@H](CCCCN)C(=O)N[C@@H](C(=O)O)C(C)C)C(C)O)[C@@H](C)CC` (stereo partly shown) (Lauroyl-Q[dH]S[dQ][ξIle][dThr(3ξ)]K[dV]-OH), for which the “brain stability (comparative)” value in [1] (brain (mouse)) was “more brain stable”. In addition, the k in series [1] (brain, one phase decay) is 1.901 h⁻¹; in the series “Plasma stability (human)” it was 0.2102 h⁻¹; in [2], 0.2337 h⁻¹; in “Plasma stability (mouse)”, 4.595 h⁻¹; in series [4] (liver, one phase decay), 1.146 h⁻¹. Also, the half-life is 0.365 h in series [1] (setting [8]); 0.365 h in [1] (setting [9]); 3.3 h in the series “Plasma stability (human)” (read-out: t1/2 (h)); 3.3 h in “Plasma stability (human)” (read-out: t1/2 (min)); 2.97 h in series [2] (read-out: t1/2 (h)); 2.97 h in series [2] (read-out: t1/2 (min)). The half-life in “Plasma stability (mouse)” (read-out: t1/2 (h)) came to 0.151 h; in the series “Plasma stability (mouse)” (read-out: t1/2 (min)), 0.151 h; in [4] (setting [10]), 0.605 h; in series [4] (setting [11]), 0.605 h. In the series “Plasma stability (human)”, the “human plasma stability” value is recorded as “good”. The “freezing behavior compared with the myristoyl peptide” value with APP/PS1 mice (FIG. 5) is “more than the myristoyl peptide”. Moreover, the “increase in freezing compared to myristoyl-QHSQITKV” value with APP/PS1 mice (fear conditioning test) was determined as 36%. For the same compound, the “contextual fear conditioning performance (freezing behavior)” value in the series on APP/PS1 mice (i.c.v. infusion 3-4 weeks, vs vehicle, FIG. 4B) is recorded as “improved the performance; also recorded: enhance freezing behavior”. The “BBB permeability” value in series [5] was “good”. The compound also gave a Papp at 200 μM in “in vitro” of more than 3.77 ×10⁻⁶ cm/s. In “in vitro”, this compound gave a Papp of 5.57 ± 0.289 ×10⁻⁶ cm/s. The Cell viability entry in the series on hCMEC/D3 cells was “+++++”. The “cell viability” value in the series on hCMEC/D3 cells is listed as “good”.
With Angiopep-2, the “Papp, previous reported value” in series [6] was 8.69±1.53 ×10^−6 cm/s.
As for `CCCCCCCCCCCCCC(=O)N[C@@H](CCC(N)=O)C(=O)N[C@@H](Cc1c[nH]cn1)C(=O)N[C@@H](CO)C(=O)N[C@@H](CCC(N)=O)C(=O)N[C@H](C(=O)N[C@H](C(=O)N[C@@H](CCCCN)C(=O)N[C@H](C(=O)O)C(C)C)[C@@H](C)O)[C@@H](C)CC` (Myristoyl-QHSQITKV-OH; C-terminus assumed), in series [1] (brain (mouse)), the “brain stability (comparative)” value is “more brain stable”. For the same compound, the k was 2.714 h⁻¹ in series [1] (brain, one phase decay); 0.3116 h⁻¹ in “Plasma stability (human)”; 0.1534 h⁻¹ in series [2]; 0.7972 h⁻¹ in “Plasma stability (mouse)”; 0.5092 h⁻¹ in [4] (liver, one phase decay). The half-life is 0.26 h in [1] (brain (mouse), read-out: half-life (converted)); 0.255 h in [1] (setting [8]); 0.255 h in series [1] (setting [9]); 2.22 h in the series “Plasma stability (human)” (read-out: t1/2 (h)); 2.22 h in the series “Plasma stability (human)” (read-out: t1/2 (min)); 4.52 h in series [2] (read-out: t1/2 (h)). Moreover, the half-life in [2] (read-out: t1/2 (min)) was 4.52 h; in the series “Plasma stability (mouse)” (read-out: t1/2 (h)) it was 0.869 h; in “Plasma stability (mouse)” (read-out: t1/2 (min)), 0.869 h; in series [4] (liver (mouse), read-out: half-life (converted)) it was 1.4 h; in [4] (setting [10]), 1.36 h; in [4] (setting [11]), 1.36 h. For the same compound, the “critical aggregate concentration (CAC), lower than equivalent lipidized peptide with a threonine” value in series [7] was approximately 5 fold. In addition, the “water solubility (comparative with threonine analogue)” value in series [3] was “higher water solubility”. Further, the share remaining at 2 h in the series “Plasma stability (mouse)” (after 2 hours of incubation, read-out: peptide remaining) is approximately 50%. For the same compound, the “stability in mouse plasma (comparative)” value in “Plasma stability (mouse)” (longer half-lives) is listed as “more plasma stable”. Besides, the “BBB permeability” value in [5] is reported as “poor”. In “in vitro”, this compound had a Papp at 200 μM of less than 3.77 ×10⁻⁶ cm/s. For the same compound, the Papp in “in vitro” is 2.63 ± 0.0786 ×10⁻⁶ cm/s. Moreover, the Cell viability result with hCMEC/D3 cells is recorded as “+”. For the same compound, in the series on hCMEC/D3 cells, the “recovery of cells at 24 hours” value is “did not recover”.

Usually Papp stands for a coefficient for how fast a substance crosses the barrier. Lower therefore signals slow passage. In general, fraction remaining refers to what is left of the initial amount, in per cent.
